Test results from PMC5216056 (Nature Communications, 2017).

How the values were obtained:
[1] = target: T1, human NAPE-PLD (Homo sapiens, UniProt Q6IQ20); test: NAPE-PLD inhibition; type: biochemical; details: 10 µM
T1 construct: Full length human cDNA NAPE-PLD was obtained from Natsuo Ueda; expressed in transfected cells; host or cells: HEK293T (transient), membrane fraction
Description: Full length human cDNA NAPE-PLD was obtained from Natsuo Ueda[58] and cloned into mammalian expression vector pcDNA3.1, containing a C-terminal Flag-tag and genes for ampicillin and neomycin resistance. All plasmids were grown in XL-10 Z-competent cells and prepped (Maxi Prep, Qiagen). Sequence analysis for the confirmation of the sequences was performed at the Leiden Genome Technology Centre.
HEK293T cells (source: Dutch Cancer Institute) were cultured at 37 °C and 7% CO2 in DMEM with glutamax, penicillin (100 μg ml^−1), streptomycin (100 μg ml^−1) and 10% New Born Calf Serum iron supplemented (Hyclone SH30072.03). Cells were passaged twice a week to appropriate confluence. Twenty-four hours before transfection 10^7 cells were seeded on a 15 cm dish. Two hours before transfection, the medium was refreshed. Transfection is performed with PEI in a ratio of 3:1 with human NAPE-PLD or Mock pcDNA3.1Neo, 20 μg per dish. Medium is refreshed after 24 h and cells are harvested after 72 h. Cell suspensions are centrifuged at 1,000g for 10 min, supernatant removed and pellets frozen at −80 °C until further use.
Cell pellets are re-suspended in lysis buffer 1: 20 mM Hepes, 2 mM DTT, 0.25 M sucrose, 1 mM MgCl2, 2.5 U ml^−1 benzonase and incubated 30 min on ice. The cytosolic fraction (supernatant) is separated from the membranes by ultra-centrifugation (32,000 rpm for 30 min 100,000g). The pellet is resuspended in buffer 2: 20 mM Hepes, 2 mM DTT (membrane fraction). All samples are stored at −80 °C. Enzyme concentrations are determined using a Bradford assay.
The membrane protein fraction from transient overexpression of NAPE-PLD in HEK293T cells was diluted to 0.4 mg ml^−1 in assay buffer: 50 mM Tris-HCl (pH 7.5), 0.02% Triton X-100, 150 mM NaCl (ref. [60]). […] Relevant concentrations of compounds are prepared in DMSO. The assay is performed in a dark Greiner 96-well plate, end volume 100 μl. The compound or DMSO is incubated with membrane protein lysate (final concentration 0.04 mg ml^−1) for 30 min at 37 °C. A sample without membrane protein lysate is incorporated for background subtraction. Then, substrate is added (final concentration 1 μM) and the measurement is started immediately on a TECAN infinite M1000 pro at 37 °C (excitation 485 nm, emission 535 nm), scanning every 2 min for 1 h.

[2] = target: T2, hDAGL-α (Homo sapiens, UniProt Q9Y4D2); test: Biochemical DAGLα activity assay; details: 10 µM
T2 construct: expressed in transfected cells; host or cells: HEK293T (transient), membrane preparation
T2 sequence (Q9Y4D2 1-1042): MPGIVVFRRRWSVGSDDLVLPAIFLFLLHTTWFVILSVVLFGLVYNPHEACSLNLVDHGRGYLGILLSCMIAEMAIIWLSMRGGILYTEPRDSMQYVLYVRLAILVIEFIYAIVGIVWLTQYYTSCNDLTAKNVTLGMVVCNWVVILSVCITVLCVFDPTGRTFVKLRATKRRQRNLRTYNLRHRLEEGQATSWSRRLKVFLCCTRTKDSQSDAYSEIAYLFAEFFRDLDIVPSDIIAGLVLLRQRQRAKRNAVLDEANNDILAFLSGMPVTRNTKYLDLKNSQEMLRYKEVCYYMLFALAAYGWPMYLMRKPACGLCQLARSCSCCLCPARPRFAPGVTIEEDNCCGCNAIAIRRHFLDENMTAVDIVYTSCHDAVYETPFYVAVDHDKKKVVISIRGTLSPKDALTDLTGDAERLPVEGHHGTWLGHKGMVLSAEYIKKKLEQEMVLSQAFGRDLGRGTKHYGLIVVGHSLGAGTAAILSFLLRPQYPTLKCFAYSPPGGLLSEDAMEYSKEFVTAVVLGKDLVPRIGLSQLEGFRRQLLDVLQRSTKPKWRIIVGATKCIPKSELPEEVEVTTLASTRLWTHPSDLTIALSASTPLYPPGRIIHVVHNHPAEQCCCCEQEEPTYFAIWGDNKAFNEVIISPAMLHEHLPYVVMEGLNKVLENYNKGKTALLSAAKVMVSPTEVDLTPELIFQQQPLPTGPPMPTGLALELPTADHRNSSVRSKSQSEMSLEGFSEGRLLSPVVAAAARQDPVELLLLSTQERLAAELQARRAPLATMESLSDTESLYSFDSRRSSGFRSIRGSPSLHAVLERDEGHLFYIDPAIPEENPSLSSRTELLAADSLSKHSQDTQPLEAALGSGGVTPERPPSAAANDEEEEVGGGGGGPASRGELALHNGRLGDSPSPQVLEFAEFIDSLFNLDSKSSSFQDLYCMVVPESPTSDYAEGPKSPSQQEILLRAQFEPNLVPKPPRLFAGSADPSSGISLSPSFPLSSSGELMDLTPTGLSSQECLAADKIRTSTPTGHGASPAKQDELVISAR
Description: (§1) Cell culture and membrane preparation were performed as previously described. HEK293T cells (source: Dutch Cancer Institute) were grown in DMEM with stable glutamine and phenolred (PAA), 10% New Born Calf serum, penicillin and streptomycin. Cells were passaged every 2–3 days by resuspending in medium and seeding them to appropriate confluence. Membranes were prepared from transiently transfected HEK293T cells. One day prior to transfection 10^7 cells were seeded in a 15 cm petri dish. Cells were transfected by the addition of a 3:1 mixture of polyethyleneimine (60 μg) and plasmid DNA (20 μg) in 2 ml serum-free medium. The medium was refreshed after 24 h, and after 72 h the cells were harvested by suspending them in 20 ml medium. The suspension was centrifuged for 10 min at 1000, rpm, and the supernatant was removed. The cell pellet was stored at −80 °C until use. Cell pellets were thawed on ice and suspended in lysis buffer A (20 mM HEPES, 2 mM DTT, 0.25 M sucrose, 1 mM MgCl2, […] Benzonase). The suspension was homogenized by polytrone (3 × 7 s) and incubated for 30 min on ice. The suspension was subjected to ultracentrifugation (100,000 × g, 30 min, 4 °C, Beckman Coulter, Type Ti70 rotor) to yield the cytosolic fraction in the supernatant and the membrane fraction as a pellet. The pellet was resuspended in lysis buffer B (20 mM HEPES, 2 mM DTT). The protein concentration was determined with Quick Start Bradford assay (Biorad). The protein fractions were diluted to a total protein concentration of 1 mg ml^−1 and stored in small aliquots at −80 °C until use.
hDAGL-α activity was measured by the extent of the hydrolysis of para-nitrophenylbutyrate (PNP-butyrate) by membrane preparations from HEK293T cells (source: Dutch Cancer Institute) transiently transfected with hDAGL-α (ref. [43]). Percentage of inhibition of reference ligands was determined in comparison with an untreated control. Reactions were performed in 50 mM pH 7.2 HEPES buffer with 0.05 μg μl^−1 final protein concentration hDAGL-α transfected protein.

[3] = target: T3, MAGL (Homo sapiens, UniProt Q99685); test: Biochemical MAGL activity assay; details: 10 µM
T3 construct: expressed in transfected cells; host or cells: HEK293T (transient), membrane preparation
T3 sequence (Q99685 1-303): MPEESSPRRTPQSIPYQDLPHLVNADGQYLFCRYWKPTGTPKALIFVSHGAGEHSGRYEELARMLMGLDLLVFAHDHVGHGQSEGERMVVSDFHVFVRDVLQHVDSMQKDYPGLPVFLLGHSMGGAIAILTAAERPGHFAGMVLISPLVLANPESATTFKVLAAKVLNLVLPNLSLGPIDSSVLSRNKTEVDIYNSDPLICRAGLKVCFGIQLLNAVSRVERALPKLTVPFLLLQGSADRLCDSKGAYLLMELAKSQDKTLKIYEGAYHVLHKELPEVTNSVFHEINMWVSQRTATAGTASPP
Description: as §1
Percentage of inhibition of reference ligands was determined in comparison with an untreated control. […] Fluorescence was measured in 5 min intervals for 60 min.

[4] = system: AEA cellular uptake in U937 cells; test: cells; type: cell-based, human; details: 10 µM
[5] = target: T4, Rat recombinant TRPV2 (Rattus norvegicus, UniProt Q9WUD2); test: cell-based; type: cell-based
T4 construct: expressed in transfected cells; host or cells: HEK293 (plasmid a gift from HB Bradshaw, Indiana University)
T4 sequence (Q9WUD2 1-761): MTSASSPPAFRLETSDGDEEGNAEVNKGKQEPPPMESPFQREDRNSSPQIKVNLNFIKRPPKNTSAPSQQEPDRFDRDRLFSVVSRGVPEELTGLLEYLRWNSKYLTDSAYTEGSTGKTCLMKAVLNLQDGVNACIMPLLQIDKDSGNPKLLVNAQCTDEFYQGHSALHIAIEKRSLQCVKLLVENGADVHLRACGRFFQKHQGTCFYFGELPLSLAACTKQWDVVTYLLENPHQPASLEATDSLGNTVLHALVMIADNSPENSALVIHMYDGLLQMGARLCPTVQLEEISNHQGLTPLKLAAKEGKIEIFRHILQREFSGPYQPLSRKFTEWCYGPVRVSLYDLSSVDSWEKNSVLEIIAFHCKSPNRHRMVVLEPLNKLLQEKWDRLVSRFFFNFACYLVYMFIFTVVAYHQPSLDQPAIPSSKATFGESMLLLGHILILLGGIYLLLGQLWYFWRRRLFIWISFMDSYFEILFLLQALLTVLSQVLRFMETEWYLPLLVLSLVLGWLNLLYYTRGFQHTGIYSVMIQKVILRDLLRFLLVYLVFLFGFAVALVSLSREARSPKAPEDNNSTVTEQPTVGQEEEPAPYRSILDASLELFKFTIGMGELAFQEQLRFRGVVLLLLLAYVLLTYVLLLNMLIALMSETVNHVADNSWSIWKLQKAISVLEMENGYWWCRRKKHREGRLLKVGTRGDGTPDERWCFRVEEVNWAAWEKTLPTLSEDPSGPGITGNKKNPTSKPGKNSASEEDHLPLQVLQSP

[6] = target: T5, Rat recombinant TRPV4 (Rattus norvegicus, UniProt Q9ERZ8); test: cell-based; type: cell-based
T5 construct: expressed in transfected cells; host or cells: HEK293 (TRPV4-HEK-293, gift from HB Bradshaw, Indiana University)
T5 sequence (Q9ERZ8 whole entry): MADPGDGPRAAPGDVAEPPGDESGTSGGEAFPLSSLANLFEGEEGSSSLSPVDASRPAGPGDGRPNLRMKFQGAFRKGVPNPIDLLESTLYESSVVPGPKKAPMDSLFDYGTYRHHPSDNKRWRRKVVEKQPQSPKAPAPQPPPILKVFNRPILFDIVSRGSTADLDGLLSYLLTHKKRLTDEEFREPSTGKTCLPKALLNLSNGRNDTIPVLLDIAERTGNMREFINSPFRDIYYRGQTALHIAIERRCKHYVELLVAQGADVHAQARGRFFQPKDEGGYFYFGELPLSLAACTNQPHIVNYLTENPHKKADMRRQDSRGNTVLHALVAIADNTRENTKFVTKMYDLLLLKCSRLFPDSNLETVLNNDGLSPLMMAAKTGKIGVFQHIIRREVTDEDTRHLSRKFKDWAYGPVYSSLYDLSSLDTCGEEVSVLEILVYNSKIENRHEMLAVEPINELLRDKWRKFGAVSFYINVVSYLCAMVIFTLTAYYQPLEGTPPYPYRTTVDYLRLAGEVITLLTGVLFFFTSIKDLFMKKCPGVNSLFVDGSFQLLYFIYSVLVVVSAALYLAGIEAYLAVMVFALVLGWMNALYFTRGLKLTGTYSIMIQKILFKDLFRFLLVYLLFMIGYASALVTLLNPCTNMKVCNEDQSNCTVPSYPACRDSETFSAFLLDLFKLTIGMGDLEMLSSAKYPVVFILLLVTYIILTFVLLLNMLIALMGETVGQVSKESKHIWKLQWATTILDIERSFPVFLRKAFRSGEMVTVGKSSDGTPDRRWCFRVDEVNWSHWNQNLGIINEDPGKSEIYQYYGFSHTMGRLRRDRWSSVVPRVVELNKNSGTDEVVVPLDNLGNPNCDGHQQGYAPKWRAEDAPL

[7] = target: T6, Rat recombinant TRPV3 (Rattus norvegicus, UniProt Q4QYD9); test: cell-based; type: cell-based
T6 construct: expressed in transfected cells; host or cells: HEK293 (TRPV3-HEK-293, gift from HB Bradshaw, Indiana University)
T6 sequence (Q4QYD9 1-791): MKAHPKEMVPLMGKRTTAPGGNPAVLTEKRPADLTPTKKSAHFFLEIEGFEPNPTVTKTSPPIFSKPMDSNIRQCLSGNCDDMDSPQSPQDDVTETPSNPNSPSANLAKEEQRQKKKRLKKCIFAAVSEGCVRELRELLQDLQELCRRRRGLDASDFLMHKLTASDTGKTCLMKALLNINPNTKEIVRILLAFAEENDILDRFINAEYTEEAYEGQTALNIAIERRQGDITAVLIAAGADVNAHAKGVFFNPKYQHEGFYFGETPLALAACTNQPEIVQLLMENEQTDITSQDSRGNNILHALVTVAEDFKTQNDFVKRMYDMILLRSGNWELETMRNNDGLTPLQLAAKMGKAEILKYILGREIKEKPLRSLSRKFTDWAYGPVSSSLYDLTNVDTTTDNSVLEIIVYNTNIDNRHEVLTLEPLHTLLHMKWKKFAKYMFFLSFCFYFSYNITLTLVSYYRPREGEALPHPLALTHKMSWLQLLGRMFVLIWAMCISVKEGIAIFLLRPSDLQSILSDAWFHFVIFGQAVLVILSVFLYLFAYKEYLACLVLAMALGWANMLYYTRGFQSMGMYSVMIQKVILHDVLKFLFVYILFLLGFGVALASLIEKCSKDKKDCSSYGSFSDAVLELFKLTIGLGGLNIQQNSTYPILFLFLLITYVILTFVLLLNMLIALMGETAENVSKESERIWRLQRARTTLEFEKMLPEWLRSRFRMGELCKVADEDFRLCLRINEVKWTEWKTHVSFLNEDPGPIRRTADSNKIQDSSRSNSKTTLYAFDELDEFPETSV

[8] = target: T7, Rat recombinant TRPM8 (Rattus norvegicus, UniProt Q8R455); test: TRP channel [Ca2+]i assay; type: cell-based; details: agonist
T7 construct: expressed in transfected cells; host or cells: HEK293 (TRPM8-HEK-293, gift from Mario van der Stelt)
T7 sequence (Q8R455 whole entry): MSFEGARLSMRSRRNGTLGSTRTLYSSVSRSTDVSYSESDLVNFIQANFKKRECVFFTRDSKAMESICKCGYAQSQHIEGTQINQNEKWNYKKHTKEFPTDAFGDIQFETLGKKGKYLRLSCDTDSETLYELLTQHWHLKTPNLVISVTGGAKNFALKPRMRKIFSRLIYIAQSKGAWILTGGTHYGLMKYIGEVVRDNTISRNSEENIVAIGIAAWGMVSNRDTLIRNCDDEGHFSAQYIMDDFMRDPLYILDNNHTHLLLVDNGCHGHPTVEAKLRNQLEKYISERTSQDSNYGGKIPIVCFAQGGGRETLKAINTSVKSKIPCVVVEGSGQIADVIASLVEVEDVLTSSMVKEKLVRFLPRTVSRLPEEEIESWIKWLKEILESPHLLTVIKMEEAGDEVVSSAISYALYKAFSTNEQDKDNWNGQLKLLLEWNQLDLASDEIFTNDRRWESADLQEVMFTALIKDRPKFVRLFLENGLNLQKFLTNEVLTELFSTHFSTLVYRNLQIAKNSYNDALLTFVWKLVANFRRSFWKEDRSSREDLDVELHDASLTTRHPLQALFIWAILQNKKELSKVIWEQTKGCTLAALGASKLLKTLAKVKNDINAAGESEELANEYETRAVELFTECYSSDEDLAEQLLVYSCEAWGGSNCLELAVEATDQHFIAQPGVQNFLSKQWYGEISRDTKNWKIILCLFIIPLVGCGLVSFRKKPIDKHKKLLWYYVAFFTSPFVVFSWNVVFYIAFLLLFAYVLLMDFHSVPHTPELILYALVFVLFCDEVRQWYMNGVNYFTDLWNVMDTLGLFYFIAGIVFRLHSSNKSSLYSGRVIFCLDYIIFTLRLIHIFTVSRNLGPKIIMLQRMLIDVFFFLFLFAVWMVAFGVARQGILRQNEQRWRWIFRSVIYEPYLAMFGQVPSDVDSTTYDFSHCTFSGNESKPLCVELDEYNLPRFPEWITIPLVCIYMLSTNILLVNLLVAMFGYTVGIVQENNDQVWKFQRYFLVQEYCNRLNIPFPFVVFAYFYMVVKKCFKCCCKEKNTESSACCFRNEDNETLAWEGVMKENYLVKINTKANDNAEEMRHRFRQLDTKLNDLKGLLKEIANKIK

T1 sequence (Q6IQ20 whole entry): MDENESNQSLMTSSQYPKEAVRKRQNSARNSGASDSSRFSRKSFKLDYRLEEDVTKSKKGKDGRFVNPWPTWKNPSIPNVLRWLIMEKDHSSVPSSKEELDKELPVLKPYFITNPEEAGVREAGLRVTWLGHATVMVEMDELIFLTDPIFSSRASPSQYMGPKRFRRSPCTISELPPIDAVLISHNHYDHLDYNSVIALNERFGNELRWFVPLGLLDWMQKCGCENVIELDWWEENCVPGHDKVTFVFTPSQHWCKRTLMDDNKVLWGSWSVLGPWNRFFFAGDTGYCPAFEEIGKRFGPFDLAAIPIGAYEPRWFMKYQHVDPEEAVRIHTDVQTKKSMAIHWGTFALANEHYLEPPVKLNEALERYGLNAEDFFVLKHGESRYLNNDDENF

CCCCCc1cc(O)c2c(c1)OC(C)(C)[C@@H]1CCC(C)=C[C@@H]21 [Δ9-THC, Δ^9-tetrahydrocannabinol]
NAPE-PLD % inhibition at 10 µM ± SD [1]: 0 ± 12% | DAGL % inhibition at 10 µM ± SD [2]: -9 ± 12% | MAGL % inhibition at 10 µM ± SD [3]: 7 ± 17%

CCCCC/C=C\C/C=C\C/C=C\C/C=C\CCCC(=O)NCc1ccoc1 [UCM707]
AEA cellular uptake inhibition, positive controls [4]: 71.5±8.0%

CCCCCCCC/C=C\CCCCCCCC(=O)N[C@@H](CO)Cc1ccc(O)cc1 [OMDM-2]
AEA cellular uptake inhibition, positive controls [4]: 59.7±6.6%

lysophosphatidylcholine [LPC]
TRPV2 Efficacy (% ionomycin 4μM) [5]: 91.7±0.5% | EC50 ([5]; read-out: TRPV2 Potency EC50): 3400 ± 20 nM

CCCCCCCCCC(=O)O[C@@H]1[C@@H](C)[C@@]2(O)[C@@H](C=C(CO)C[C@@]3(O)C(=O)C(C)=C[C@@H]23)[C@@H]2C(C)(C)[C@]12OC(=O)CCCCCCCCC [4α-PDD, 4α-phorbol 12,13-didecanoate]
TRPV4 Efficacy (% ionomycin 4μM) [6]: 51.9±1.7% | EC50 ([6]; read-out: TRPV4 Potency EC50): 460 ± 70 nM

Cc1ccc(C(C)C)c(O)c1 [thymol]
TRPV3 Efficacy (% ionomycin 4μM) [7]: 34.7±0.2% | EC50 ([7]; read-out: TRPV3 Potency EC50): 84100 ± 1600 nM

O=C1NC(c2cccc([N+](=O)[O-])c2)=CCN1c1ccccc1O [icilin]
TRPM8 efficacy [8]: 75.1±1.1 | EC50 ([8]; read-out: TRPM8 potency EC50): 110 ± 10 nM
